Patent publication US20110245323A1, “RIG-Like Helicase Innate Immunity Inhibits VEGF-Induced Tissue Responses” (Yale University, priority 2006, published 2011)
“Also recorded” adds a separate entry of the source.

Legend:
Type in all cases: in vivo, mouse
[1] = system: CC10-rtTA-VEGF165 transgenic mice; experiment: VEGF-induced pulmonary hemorrhage in BAL fluids; conditions: Tg+ mice, pretreatment, vs vehicle
Method: The CC10-rtTA-VEGF165 transgenic mice used in this study were generated and used as described previously (Lee et al., 2004, Nature Medicine 10:1095-103), which reference is incorporated herein in its entirety. These animals were housed under barrier conditions in the animal facility at Yale University School of Medicine. In these experiments 6-8 week old transgenic (Tg+) animals and their transgene negative littermate controls (Tg−) were randomized to receive water with doxycycline (dox) (0.5 mg/ml) or normal water. Two weeks later they were sacrificed and the VEGF-induced phenotype was evaluated as described below (Lee et al., 2004, Nature Medicine 10:1095-103). […]
Mice were sacrificed using intraperitoneal ketamine/xylazine injection and the trachea was cannulated and perfused with two 0.9 nil aliquots of cold saline. The cellular contents and BAL fluid were separated by centrifugation, the BAL cell number was quantitated and cell differential was assessed. […]
The lungs were removed en bloc as described elsewhere herein, inflated at 25 cm pressure with PBS containing 0.5% low melting point agarose gel, fixed in Streck solution (Streck Laboratories, La Vista, Nebr.), embedded in paraffin, sectioned and stained. […] Pulmonary hemorrhage was evaluated by quantitating BAL red blood cell number with a Coulter counter (Beckman Coulter).

[2] = system: CC10-rtTA-VEGF165 transgenic mice; experiment: BAL inflammatory cell recovery, VEGF-induced inflammation
Method: The CC10-rtTA-VEGF165 transgenic mice used in this study were generated and used as described previously (Lee et al., 2004, Nature Medicine 10:1095-103), which reference is incorporated herein in its entirety. These animals were housed under barrier conditions in the animal facility at Yale University School of Medicine. In these experiments 6-8 week old transgenic (Tg+) animals and their transgene negative littermate controls (Tg−) were randomized to receive water with doxycycline (dox) (0.5 mg/ml) or normal water. Two weeks later they were sacrificed and the VEGF-induced phenotype was evaluated as described below (Lee et al., 2004, Nature Medicine 10:1095-103).
To define the effects of these agents on the tissue responses induced by VEGF, two experimental procedures were used. In the first, a pretreatment protocol was used. In these experiments the noted innate immunity agonist ([…] unless otherwise indicated) or its vehicle control (PBS) were administered intranasally and aspirated into the lungs of randomized Tg+ and Tg− mice starting one day before the Dox water treatment. The doses were administered to the mice every other day during the 2 week doxyxycline (dox) treatment interval.
To determine if the innate immunity agonists altered established VEGF-induced tissue responses, a “post treatment” protocol was used in selected experiments. In these experiments the innate immunity agonist was administered 2 days or 14 days after the doxycycline and VEGF-induced responses were evaluated 2 weeks later.
(§1) To define the effects of Poly(I:C) a number of protocols were employed. In most experiments, a pretreatment-2 week protocol was employed. In these experiments, WT and Tg+ mice were treated with Poly(I:C) (30 μg in 50 lambda unless otherwise indicated; Amersham Biosciences, N.J.) or vehicle control via nasal aspiration and transgene activation was accomplished via the administration of dox (0.5 mg/ml) in the animal's drinking water 24 hours later. The Poly(I:C) was administered every other day and the dox was administered continuously for up to 2 weeks.
Lastly, in selected experiments post-transgene activation protocols were employed. In these experiments dox was administered for 2 days or 2 weeks. The Poly(I:C) was then administered via intranasal aspiration every other day for 2 weeks as disclosed elsewhere herein. In selected pre-treatment and post-transgene activation experiments, unmethylated CpG (CpG-B) (Keck Center, Yale University) was also employed at similar doses. At the end of these intervals, assessments of angiogenesis (anti-CD31 immunohistochemistry), vascular permeability (Evan's blue dye extravasation, wet to dry lung weight measurements, BAL protein concentration), BAL and tissue inflammatory cell infiltration and mucus metaplasia (periodic acid-Schiff (PAS) staining, MUC5AC immunoblotting) were undertaken. In all cases experiments were designed to compare Tg− and Tg+ mice on normal water and Tg− and Tg+ mice on dox water.
(§2) Mice were sacrificed using intraperitoneal ketamine/xylazine injection and the trachea was cannulated and perfused with two 0.9 nil aliquots of cold saline. The cellular contents and BAL fluid were separated by centrifugation, the BAL cell number was quantitated and cell differential was assessed. The BAL fluid was stored in aliquots at −80° C.

[3] = system: OVA sensitized and challenged mice; experiment: Ovalbumin (OVA) sensitization and challenge Th2 inflammation model
Method: as §2
ELISA assay kits for VEGF and IL-13 were purchased from R&D Systems (Minneapolis, Minn.).
OVA sensitization (with alum) and aerosol OVA challenge were undertaken as previously described (Lee et al., 2008, Am J Respir Cell Mol Biol 39:739-746; Lee et al., 2009, J Exp Med 206:1149-1166). The responses in mice that had been treated with Poly(I:C) or vehicle 24 hours before the aerosol challenge were compared. The BAL and tissue responses were evaluated 24 hours after antigen challenge.

VEGFR1 = experiment: VEGF receptor expression on dendritic and endothelial cells, FACS; conditions: Tg+ mice, pretreatment-2 week protocol
Method: (§3) Cell preparations were obtained from Tg− and Tg+ mice that had been randomized to receive Poly(I:C) or its vehicle control according to the pretreatment-2 week protocol described above. They were then incubated with antibodies against CD45, CD11c, MHCII, CD31, VEGFR1 (R & D Systems), VEGFR2 (Biolegends, San Diego, Calif. USA) or VEGFR3 (R&D Systems). FACS analysis was used to define the levels of receptor expression on dendritic cells (CD45+, CD11c+, MHCII+) and endothelial cells (CD45−, CD31+).

VEGFR2 = experiment: as above; conditions: Tg+ mice, pretreatment-2 week protocol
Method: as §3

VEGFR3 = experiment: as above; conditions: Tg+ mice, pretreatment-2 week protocol
Method: as §3

[4] = system: CC10-rtTA-VEGF165 transgenic mice; experiment: Lung tissue inflammation, histologic analysis; conditions: Tg+ mice, pretreatment, vs vehicle
Method: The lungs were removed en bloc as described elsewhere herein, inflated at 25 cm pressure with PBS containing 0.5% low melting point agarose gel, fixed in Streck solution (Streck Laboratories, La Vista, Nebr.), embedded in paraffin, sectioned and stained. Hematoxylin and eosin and PAS stains were performed in the Research Histology Laboratory of the Department of Pathology at the Yale University School of Medicine. Pulmonary hemorrhage was evaluated by quantitating BAL red blood cell number with a Coulter counter (Beckman Coulter).

PKR = experiment: Poly(I:C) regulation of VEGF responses in PKR null VEGF Tg+ mice; conditions: angiogenesis and dye extravasation
Excerpt: TLR3^−/−-mice were a gift from Dr. Richard A. Flavell (Yale University), MAVS null mice were a gift from Dr Zijian J. Chen (U of Texas Southwestern) (Sun et al., 2006, Immunity 24:633-642), double stranded RNA-dependent protein kinase null mutant mice (PKR^−/−) were a gift from Dr. Bryan R. G. Williams (Cleveland Clinic Foundation) (Yang et al., 1995, Embo J 14:6095-6106) and IFNAR1 null mice were obtained from Dr. Richard Enelow (Dartmouth). These mice were bred with the VEGF Tg+ mice to generate transgenic mice with wild type (+/+) or null (−/−) TLR3, MAVS, PKR or IFNAR1 loci. Thus, in each given experiment, the effects in transgene negative (Tg−) and transgenic (Tg+) mice with WT and null TLR3, MAVS, PKR or IFNAR1 loci were compared.
as §1

[5] = Tg+ mice, pretreatment, vs vehicle

polyinosinic-polycytidylic acid [Poly(I:C)]
VEGF-induced bleeding / hemorrhage in BAL fluids [1]: significantly decreased | VEGF-induced inflammation, delayed administration ([2]; Tg+ mice, given 2 days (48 hours) or 14 days after transgene activation with dox): significant decrease; also recorded: significant regulation | recovery of macrophages, eosinophils and lymphocytes during BAL ([2]; Tg+ mice, pretreatment, p<0.05): significantly decreased | BAL neutrophil accumulation [2, 5]: increased | total recovery of inflammatory cells during BAL / VEGF-induced inflammation [2, 5]: markedly decreased; also recorded: inhibited | Total cells (×10^4) ([2]; VEGF-induced tissue responses, TLR agonist administration, PBS control 50): 22 ×10^4 | lowest dose with significant alterations of VEGF-induced inflammation ([2]; pretreatment): 5 µg | dose with maximal regulation of VEGF-induced inflammation ([2]; pretreatment, highest dose tested): 30 µg | OVA-induced cytokine response (BAL IL-13) [3]: significant decrease | OVA-induced inflammatory response (BAL total cell, macrophage, eosinophil, lymphocyte recovery) ([3]; Poly(I:C) 24 hours before aerosol challenge): significant decrease; also recorded: abrogated | expression of VEGFR1 on dendritic cells and endothelial cells (VEGFR1): inhibited | expression of VEGFR2 on dendritic cells and endothelial cells (VEGFR2): not | expression of VEGFR3 on dendritic cells and endothelial cells (VEGFR3): not | inflammatory cell accumulation in lung tissues [4]: lower levels of inflammation | effects of Poly(I:C) in PKR null mice (PKR): not significantly altered
